A short description of series [1]: acid-base titration with NaOH. Type of series: physicochemical. The conditions noted are these: Milli-Q water with 10% DMSO, ~2 mM compound. On the procedure: Fig. 6 (a) Acid–base titration of 3, 5, 13 and neutral and basic forms of 3, 5, 13. (20 μmol of compound in 10 mL (10% DMSO, ∼2 mM), 3 and 5 were acidified with HCl (50 μmol)). (b) Acid-base equilibria for inhibitors 3, 5 and 13 highlighting potentially metal chelating nitrogen atoms in red. (c) TMAP of our inhibitors combined with 169 pyrazolyl-pyrimidones and 1717 pyrazolyl-pyridines found in ChEMBL, color coded by source: cyan = pyrazolyl-pyridines from ChEMBL, blue = pyrazolyl-pyrimidones from ChEMBL, red = this work. Insert: Close-up view around pyrazolyl-pyrimidones color-coded by target class: red = transporter, cyan = enzyme, magenta = unclassified protein, grey = unclassified target. The interactive TMAP including further color-codes (target classes, QED, etc.) is accessible at:; http://tm.gdb.tools/dmt1_inhibitors/pyrimidones_pyridines/ […]
Milli-Q water, 1 mL DMSO and 0.5 mL HCl 0.1 M (Final concentration of 2 mM). Compound
13 (HCl salt, 200 µL, 0.1 M in DMSO) was dissolved in 0.8 mL DMSO and […] Milli-Q
water. Then, a solution of 0.1 M NaOH was added by steps of 2 µL with a Dosimat plus
(Metrohm, Zofingen, Switzerland) and pH was measured using a 692 pH/ion meter (Metrohm).

The next series has as its target T1, hDMT1 (Homo sapiens, UniProt P49281).
T1 sequence (P49281 1-568): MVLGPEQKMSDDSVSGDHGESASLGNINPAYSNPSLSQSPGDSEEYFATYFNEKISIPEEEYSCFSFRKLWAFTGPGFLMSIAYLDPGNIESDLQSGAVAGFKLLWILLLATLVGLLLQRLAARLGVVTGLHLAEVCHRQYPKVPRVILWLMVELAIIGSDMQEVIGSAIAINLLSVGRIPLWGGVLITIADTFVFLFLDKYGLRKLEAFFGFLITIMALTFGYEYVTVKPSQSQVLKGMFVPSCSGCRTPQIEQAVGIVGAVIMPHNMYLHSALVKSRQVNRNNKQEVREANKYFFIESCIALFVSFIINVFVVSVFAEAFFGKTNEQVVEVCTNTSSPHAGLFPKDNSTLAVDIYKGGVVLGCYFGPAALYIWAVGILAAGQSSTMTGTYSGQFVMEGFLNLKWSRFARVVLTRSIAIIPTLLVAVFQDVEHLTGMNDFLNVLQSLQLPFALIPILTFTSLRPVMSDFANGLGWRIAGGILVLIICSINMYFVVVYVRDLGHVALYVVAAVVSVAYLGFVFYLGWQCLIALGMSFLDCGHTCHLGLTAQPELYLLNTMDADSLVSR
The experiment in a line: 55Fe2+ uptake in Xenopus laevis oocytes overexpressing hDMT1. It is filed as cell-based. Further details: DsRED; expressed in transfected cells; host or cells: HEK293T (ATCC CRL-3216), transient transfection with Lipofectamine 2000. The conditions noted are these: compound 10 μM, 55Fe2+ 20 μM. On the procedure: Fig. 3 Characterization of Fe^2+ transport inhibition by 1 and 13 in X. laevis oocytes (collected from frogs under license number BE60/18 conceded by the Veterinärdienst des Kantons BE, Sekretariat Tierversuche). (a) Upper panel: Average ^55Fe^2+-uptake (20 μM) by hDMT1-expressing and non-injected oocytes in the absence and the presence of the indicated compounds (10 μM). Data was normalized to ^55Fe^2+-uptake (pmol min^–1) in the absence of compounds represented as mean ± SD (16–29 oocytes). Lower panel: Net uptake of ^55Fe^2+ (20 μM) by hDMT1 in the absence and the presence of the indicated compounds (10 μM). For each batch of oocytes, uptake values were corrected for unspecific iron uptake in non-injected oocytes. Data were normalized to the mean iron uptake by hDMT1 WT (pmol min^–1) and represented as mean ± SD (14–34 oocytes). (b and c) Electrophysiology. […] For each trace, recorded currents were corrected for the background currents observed without substrate. (b) Representative traces recorded with hDMT1 injected oocytes (upper panel) and non-injected oocytes (lower panel). […] Statistical differences were assessed using T-test or Mann–Whitney U test (Fe^2+-uptake by hDMT1 WT vs. non-injected oocytes or vs. compound); p > 0.05 = ns; p < 0.001 = ***. […]

Here are results for four compounds from paper PMC7649969, “Pyrazolyl-pyrimidones inhibit the function of human solute carrier protein SLC11A2 (hDMT1) by metal chelation” (RSC Medicinal Chemistry, 2020).

Where two headings read alike, the source gives them in different places.

Regarding `Cc1cc(O)nc(-n2nc(C)cc2C)n1` [Compound 5], the pKa in series [1] (read-out: pKa1) amounted to 3.6; in series [1] (read-out: pKa2), 6.5.
Turning to `Cc1cc(=O)[nH]c(-n2nc3c(c2C)CCCC3)n1` [Compound 13], the pKa in series [1] (read-out: pKa1) turned out to be 3.3; in series [1] (read-out: pKa2), 7. Moreover, the inhibition at 10 µM at hDMT1 (read-out: inhibition of radioactive iron uptake in oocytes) is 50%.
Consider `N=C(N)SCc1cccc2c1oc1c(CSC(=N)N)cccc12` [Compound 1, reference compound], for which the “inhibition of radioactive iron uptake in oocytes” value at hDMT1 is listed as “totally inhibited”.
Take `Cc1nn(-c2ccccn2)c(O)c1C(=O)Nc1cccc(C(F)(F)F)c1` [Compound 3, reference compound]: the pKa in series [1] (read-out: pKa1) came to 3.3; in series [1] (read-out: pKa2) it was 6.7.

One may read the inhibition as the share of the control response that was lost under treatment.
